This experiment has as its system CEM cells HIV-1 protection, formazan growth assay. The experiment can be described thus: NCI AIDS Antiviral Assay. Particulars: for pIC50: measured here: growth of uninfected CEM cells. An outline of the steps: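 Human CEM cells, uninfected and HIV-1-infected, received five drug concentrations, and growth was read by soluble formazan assay. Compounds giving at least 50% protection were retested; reproducible 100% protection defined confirmed active.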

pEC50, pIC50: −log10 of the molar value. Values joined by “and” are separate entries in the source; they are usually repeats but may differ in a detail not shown here. Identical values can stand only once. Active and inactive are the calls of the source.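 Rule for the calls: active = compounds giving half or more protection of infected cells from virus-caused growth loss, again on retest; inactive = the rest.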 Where a SMILES comes first, the peptide text is derived from it. [ ]: non-standard residue; d: D form. The star is where a group is joined. ξ: configuration not given here. Boc = CC(C)(C)OC(=O)*; ξV = CC(C)C(N)C(=O)O; OBn = c1ccc(CO*)cc1

For the molecule `CC1CCOC(=O)/C=C/C=C/C(=O)OC2CC3OC4C5OC5(C)C(O)CC4(COC(=O)C1O)C2(C)C31CO1` (stereo not drawn), the pEC50 was less than 5.70 and the pIC50 was 7.33.
Regarding `CC1(C)CCCCCCCCCC(C)(CCCO)C1=O` (stereo not drawn), the pEC50 was less than 3.70 and the pIC50 was 4.57.
The matching figures for `CCOC(=O)C(=[N+]=[N-])C(=O)CSC#N`: less than 3.70 and 4.98.
On to `Cc1ccc(-n2c(Cn3nnc(-c4cccnc4)n3)nn(C3OC(COC(=O)c4ccccc4)C(OC(=O)c4ccccc4)C3OC(=O)c3ccccc3)c2=S)cc1C` (stereo not drawn), for which the pEC50 is less than 4.00 and the negative-log IC50 (pIC50) was less than 4.00.
For `CCOC(=O)C1(O)N=C(c2ccccc2)c2ccccc2-n2cccc21` (stereo not drawn), the pEC50 was less than 3.70 and the pIC50 was less than 3.70.
With `CC(C)(Br)C(=O)N1CCN(C(c2ccccc2)c2ccccc2)CC1`, the pEC50 was less than 4.60.
Take `CCCCN1C=CN2c3nc4cc(C)c(C)cc4n3C(C(=O)OC)=C(C(=O)OC)C12` (stereo not drawn): the result was inactive.
With `CC(=O)OCC1OC(n2c3c(cc(C#N)c2=S)CCCC3)C(OC(C)=O)C(OC(C)=O)C1OC(C)=O` (stereo not drawn), the pEC50 is less than 3.70; the pIC50 is 4.06 and < 3.70.
With `CC1(C)[C@H]2Cc3cc4nc5ccccn5c4cc3[C@@H]1C2`, the pEC50 was less than 3.70 and the pIC50 is 4.62.
As for `COC(=O)C1=C(C)NC2=C(C(=O)CCC2)C1CCSC` (stereo not drawn), the outcome was inactive.
In the case of `CCO[C@@]12CCC3CC4CC[C@@](OCC)(O1)C4C32` (stereo partly drawn), the pEC50 is less than 3.70 and the pIC50 was less than 3.70.
On to `Cc1c(CSCC(=O)O)c(O)c2c(=O)c3c(O)c(CSCC(=O)O)c(O)c4c5c(O)c(CSCC(=O)O)c(O)c6c(=O)c7c(O)c(CSCC(=O)O)c(C)c8c1c2c(c34)c(c78)c65`, for which the pEC50 is less than 4.57 and the pIC50 is 5.95.
As to `CCCCCCCCCCOC1C(C(C)OCCCN(C)C)OC2OC3(CCCCC3)OC21` (stereo not drawn), the pEC50 was less than 3.70 and the pIC50 was 4.98.
`OCCN(CCO)CN(CO)c1nc(N(CO)CN(CCO)CCO)nc(N(CO)CN(CCO)CCO)n1`: the pEC50 is less than 3.36 and the pIC50 was less than 3.36.
`CC(C)c1ccc(/C=C2\C=Cc3ccccc32)cc1`: the pEC50 was less than 4.39 and the pIC50 was less than 4.39.
For `CC(C)C(NC(=O)OC(C)(C)C)C(=O)NCC(=O)OCc1ccccc1` (stereo not drawn) (Boc-[ξV]-Gly-OBn), the pEC50 is less than 3.70 and the pIC50 is 4.55.
The matching figures for `NC(N)=NS(=O)(=O)c1ccc(Nc2c3ccccc3nc3c(C(=O)Nc4ccc(S(N)(=O)=O)cc4)cccc23)cc1`: 5.08 and 4.50.
With `c1ccc(-c2ccc(-c3cc4ccccc4[nH]3)cc2)cc1`, the pEC50 is less than 3.70 and the pIC50 is less than 3.70.
As for `C=CCN=C1NC(=O)C(CC(=O)Nc2cccc(Cl)c2)S1` (stereo not drawn), the pEC50 is less than 3.54 and the pIC50 was less than 3.54.
`CC1=NN(C(=O)Cc2ccccc2)C(=O)/C1=C\c1cccc(O)c1`: the pEC50 is less than 4.65 and the negative-log IC50 (pIC50) is less than 4.65.
`CC(C)(C)C1=CC(=Nc2ccc([N+](=O)[O-])cc2[N+](=O)[O-])C=C(C(C)(C)C)C1=O`: the pEC50 is less than 4.87 and the pIC50 is less than 4.87.
As to `O/N=C1\CC2(N3CCOCC3)CCC1(c1ccccc1)CC2`, the outcome was inactive.
With `CN(C)CCOc1ccc(-c2c(Oc3ccc(Cl)cc3)c(=O)oc3ccccc23)cc1`, the pEC50 was less than 3.70 and the pIC50 is 5.09.
Turning to `CC(=O)OC1CC2(C)C(OC(C)=O)CC1C2(C)C` (stereo not drawn), the pEC50 was less than 3.70 and the pIC50 was less than 3.70.
Take `COc1cc(C)c(C(=O)Oc2cc(C)c(C(=O)O)c(O)c2C)c(OC)c1C`: the pEC50 is less than 3.70 and the pIC50 was 4.15.
The matching figures for `c1ccc(OCC2CO2)c(OCC2CO2)c1` (stereo not drawn): less than 2.95 and 5.40.
The matching figures for `C=C(C)C1CCC2(CO)C(O)CC3(C)C(CCC4C5(C)CCC(O)C(C)(C)C5CCC43C)C12` (stereo not drawn): less than 4.00 and 4.12.
In the case of `COc1ccccc1-c1csc(CCC(N)C(=O)O)n1` (stereo not drawn), the result was inactive.
`O=C1NC(=O)/C(=C\c2cccc(O)c2)N1`: the pEC50 is less than 3.70 and the pIC50 was less than 3.70.
Consider `CCN(CC)CCOCCn1c2c(c3ccccc31)CCCC2`, for which the pEC50 is less than 3.70 and the pIC50 was 4.51.
For the molecule `Cc1ccc(SSc2ccc(C)c(Cl)c2)cc1Cl`, the pEC50 was less than 3.70 and the negative logarithm of the IC50 (pIC50) is less than 3.70.
With `O=C(Nc1cccnc1)c1ccccc1[Se][Se]c1ccccc1C(=O)Nc1cccnc1`, the pEC50 was 5.49 and the pIC50 is 5.16.
In the case of `COc1cc(C(Cc2ccnc3ccccc23)Cc2ccnc3ccccc23)ccc1N(C)C`, the pEC50 was less than 4.79 and the pIC50 was 5.50.
In the case of `NC1=Nc2ncccc2C(=O)NN1`, the pEC50 was less than 3.70 and the pIC50 was 3.93.
On to `O=c1[nH]c2ccccc2n1C1CCN(CCOc2ccccc2)CC1`, for which the pEC50 is less than 3.70 and the pIC50 is 4.63.
Take `O=c1cc2cccccc-2o1`: the pEC50 was less than 3.22 and the pIC50 was 3.53.
For the molecule `Cc1ccc(C(=O)Nc2ccc(S(=O)(=O)[O-])c3cc(S(=O)(=O)[O-])cc(S(=O)(=O)[O-])c23)cc1NC(=O)c1cccc(NC(=O)Nc2cccc(C(=O)Nc3cc(C(=O)Nc4ccc(S(=O)(=O)[O-])c5cc(S(=O)(=O)[O-])cc(S(=O)(=O)[O-])c45)ccc3C)c2)c1.[Ga]`, the pEC50 is less than 3.12 and the pIC50 was 4.37.
The matching figures for `Cn1cnnc1SC(F)(F)c1nc2ccccc2o1`: 3.72 and less than 3.70.
Take `O=[N+]([O-])/C=C/c1cn(CCCCCCCCCCCCn2cc(/C=C/[N+](=O)[O-])c3ccccc32)c2ccccc12`: the pEC50 was less than 4.00 and the pIC50 is less than 4.00.
Consider `CCN(CCN(CC)C(=O)NC)C(=O)NC`, for which the pEC50 is less than 3.70 and the pIC50 was less than 3.70.
In the case of `Cc1ccc(NC(=O)CCc2nc(=S)[nH][nH]2)cc1`, the pEC50 was 3.60 and the pIC50 was 3.48.
For the molecule `CCCCCCCCCCCCCC(=O)OC1C(C)C2(O)C(C=C(CO)CC3(O)C(O)C(C)=CC32)C2C(C)(C)C12OC(C)=O` (stereo not drawn), the outcome was active.
`Cc1ccc(N2C(=O)C3c4[nH]c5ccccc5c4C4CCC(C(C)(C)C)CC4C3C2=O)cc1` (stereo not drawn): the pEC50 is less than 3.70 and the pIC50 was 4.45.
As for `O=C(O)c1cc2c3c(c1)[C@H]1C=CC[C@H]1CN3CC1CC=CC21` (stereo partly drawn), the result was inactive.
`O=c1[nH]cnc2c1ncn2C1C=CC(CO)CC1` (stereo not drawn): the pEC50 was less than 3.70 and the pIC50 was less than 3.70.
With `NC(CCc1nc(-c2ccc(Cl)cc2)cs1)C(=O)O` (stereo not drawn), the outcome was inactive.
Take `CN1c2ccccc2N(C)C2C1N(C)c1ccccc1N2C` (stereo not drawn): the pEC50 is less than 4.19 and the pIC50 is 4.96.
For `C/C(=N\OC(=O)Nc1cccc(Cl)c1)c1ccccc1`, the pEC50 is less than 3.70 and the pIC50 was 4.49.
Take `O=C1C2C(C(=O)N1c1ccccc1)C1(Br)c3ccccc3C2(Br)C2C(=O)N(c3ccccc3)C(=O)C21` (stereo not drawn): the result was inactive.
For the molecule `CC1Cc2c([nH]c3ccccc3c2=O)O1` (stereo not drawn), the pEC50 is less than 2.91 and the pIC50 is 3.14.
For the molecule `Cc1ccnc(NC(=O)Nc2ccc(C)cc2[N+](=O)[O-])c1`, the pEC50 was less than 3.70 and the pIC50 is less than 3.70.

As usually defined, the pEC50 is the negative decadic logarithm of the EC50, by convention in mol/L. By pIC50 is commonly meant −log10 of the IC50, conventionally taken in molar units. A low value points to a high IC50.
